Patent US10335411B2, “Administration of ubiquitin-activating enzyme inhibitor and radiation” (Millennium Pharmaceuticals, Inc., priority 2014, dated 2019)

Columns and labels:
HN-13-0014 xenograft = HN-13-0014 xenograft model, Compound 1 and radiation; format: in vivo, mice
Text: The HN-13-0014 xenograft model is a human head and neck primary tumor model. Approximately nine week old female BALB/c nude (Shanghai Sino-British SIPPR/BK Laboratory Animal Co., LTD.) mice were implanted subcutaneously with approximate 30 mm^3 HN-13-0014 tumor slices in the right flank. When the mean tumor volume reached approximately 162 mm^3, the animals were randomized into 10 treatment groups (n=8/group).
Compound 1 [((1R,2R,3S,4R)-2,3-dihydroxy-4-(2-(3-(trifluoromethylthio) ? phenyl)pyrazolo[1,5-a]pyrimidin-7-ylamino)cyclopentyl)methyl sulfamate] is formulated in 10% HPbCD in sterile water and administered intravenously on a BIW (twice/week schedule; Monday and Thursday, i.e. days 0, 3, 7, 10, 14, 17) for 3 weeks in the HN-13-0014 and LU-01-0030 (first study) models. Compound 1 formulation was prepared weekly and stored at room temperature in the dark.
Beam-focused radiation was delivered using a either 1 or 2 Gray dosed on days 0, 1, 7, and 8 or on days 0, 3, 7, and 10 in the HN-13-0014 and LU-01-0030 (first study) models. A Rad Source RS-2000 X-ray irradiator was used for therapy (Rad Source). Before radiation, animals were anesthetized by i.p. injection using 1.0% sodium pentobarbital at 80 mg/kg (Vendor: Sigma). Focused radiation was applied to each mouse at 1 Gy/min.
(§1) Tumors were measured twice weekly using vernier calipers. Tumor volumes were calculated using the following formula: (0.5×[length×width^2]). Treatment groups and dosing/treatment schedules are indicated in Tables 1a, 2a, 3a, 4a, and 5a below. Tumor size and body weight are measured approximately twice a week for the duration of the study. Mice are euthanized when their tumor volume reached approximately 1000 mm^3. Tumor growth continued to be monitored after the dosing period in some studies. In Tables 1a, 2a, 3a, 4a, and 5a tumor volumes are shown for HN-13-0014 (day 21), LU-01-0030 (day 21), the second LU-01-0030 study (day 20), LU-01-0266 (day 20), ST-02-0004 (day 21) and FIN-13-0007 (day 24), respectively. Average tumor volume is reported as a function of time for selected groups of selected studies.
(§2) Measurements from day 0 to day 20, day 21 or day 24 are analyzed as specified in Tables below. All tumor volumes have a value of 1 added to them before log10 transformation. For each animal, the log tumor volume at day 0 is subtracted from the log tumor volume on the subsequent days. This difference vs. time is used to calculate an area under the curve (AUC) for each animal using the trapezoid rule. In instances when an animal in a treatment group is removed early from the study, the last observed tumor value is carried forward through all subsequent time points. The synergy score for the combination of agents A and B is defined as 100*(mean(AUCAB)−mean(AUCA)−mean(AUCB)+mean(AUCctl))/mean(AUCctl): where AUCAB, AUCA, AUCB, and AUCctl are the AUC values for animals in the combination group, the A group, the B group, and the control group, respectively. The standard error of the synergy score is computed based on the variation in the AUC values among the animals. […] If the P-value is above 0.05, then the combination is considered to be additive. If the P-value is below 0.05, and the synergy score is less than zero, then the combination is considered to be synergistic. If the P-value is below 0.05 and the synergy score was greater than zero, but the mean AUC for the combination was lower than the lowest mean AUC among the two single agent treatments, then the combination was sub-additive. If the P-value is below 0.05 and if the synergy score was greater than zero, and the mean AUC for the combination was greater than the mean AUC for at least one of the single agent treatments, then the combination was antagonistic.

LU-01-0030 xenograft = assay: second LU-01-0030 xenograft study, Compound 1 and radiation; format: in vivo, mice
Text: In a second study with the LU-01-0030 xenograft model, 6-8 week old female BALB/c nude (Shanghai Sino-British SIPPR/BK Laboratory Animal Co., LTD.) mice were implanted subcutaneously with approximate 20-30 mm^3 LU-01-0030 tumor slices in the right flank. When the mean tumor volume reached approximately 182 mm^3, the animals were randomized into 6 treatment groups (n=8/group).
Compound 1 [((1R,2R,3S,4R)-2,3-dihydroxy-4-(2-(3-(trifluoromethylthio) ? phenyl)pyrazolo[1,5-a]pyrimidin-7-ylamino)cyclopentyl)methyl sulfamate] is formulated in 10% HPbCD in sterile water and administered intravenously on days 0, 3, 7, 10, 14, 17 in the LU-01-0266 and HN-13-0007 models and on days 0, 3, 8, 11, 15, 18 in the ST-02-0004 model and in the second study with the LU-01-0030 model. Compound 1 formulation was prepared weekly and stored at room temperature in the dark.
Beam-focused radiation was delivered using 4 Gray dosed on day 0 in the second study for the LU-01-0030 model.
as §1, §2

[1] = 6.25 mg/kg Compound 1 + 2 Gy Radiation D0, 1, 7, 8
[2] = 6.25 mg/kg Compound 1 + 2 Gy Radiation D0, 3, 7, 10
[3] = 15 mg/kg Compound 1 + 2 Gy Radiation D0, 1, 7, 8
[4] = 15 mg/kg Compound 1 + 2 Gy Radiation D0, 3, 7, 10
[5] = 6.25 mg/kg Compound 1 + 4 Gy Radiation D0
[6] = 15 mg/kg Compound 1 + 4 Gy Radiation D0

NS(=O)(=O)OC[C@H]1C[C@@H](Nc2ccnc3cc(-c4cccc(SC(F)(F)F)c4)nn23)[C@H](O)[C@@H]1O [Compound 1, ((1R,2R,3S,4R)-2,3-dihydroxy-4-(2-(3-(trifluoromethylthio)phenyl)pyrazolo[1,5-a]pyrimidin-7-ylamino)cyclopentyl)methyl sulfamate]
Classification (HN-13-0014 xenograft; [1]): Additive (If the P-value is above 0.05, then the combination is considered to be additive)
Synergy score (HN-13-0014 xenograft; [1]): 8.6
Classification (HN-13-0014 xenograft; [2]): Additive (If the P-value is above 0.05, then the combination is considered to be additive)
Synergy score (HN-13-0014 xenograft; [2]): 7.7
Tumor Volume Day 21 (HN-13-0014 xenograft; 6.25 mg/kg Compound 1 IV BIWx3 + 2 Gy Radiation Beam D 0, 1, 7, 8): 392.7 mm^3
Tumor Volume Day 21 (HN-13-0014 xenograft; 6.25 mg/kg Compound 1 IV BIWx3 + 2 Gy Radiation Beam D 0, 3, 7, 10): 381.9 mm^3
Tumor Volume Day 21 (HN-13-0014 xenograft; 6.25 mg/kg Compound 1 IV BIWx3, single agent): 575.9 mm^3
Classification (HN-13-0014 xenograft; [3]): Additive (If the P-value is above 0.05, then the combination is considered to be additive)
Synergy score (HN-13-0014 xenograft; [3]): 7.9
Classification (HN-13-0014 xenograft; [4]): Additive (If the P-value is above 0.05, then the combination is considered to be additive)
Synergy score (HN-13-0014 xenograft; [4]): 3.2
Tumor Volume Day 21 (HN-13-0014 xenograft; 15 mg/kg Compound 1 IV BIWx3 + 2 Gy Radiation Beam D 0, 1, 7, 8): 372.4 mm^3
Tumor Volume Day 21 (HN-13-0014 xenograft; 15 mg/kg Compound 1 IV BIWx3 + 2 Gy Radiation Beam D 0, 3, 7, 10): 356.2 mm^3
Tumor Volume Day 21 (HN-13-0014 xenograft; 15 mg/kg Compound 1 IV BIWx3, single agent): 539.9 mm^3
combination effect (HN-13-0014 xenograft; Compound 1 with 2 Gy radiation): additive combination effect
anti-tumor activity compared to vehicle control (HN-13-0014 xenograft; single agent, IV at 6.25 and 15 mg/kg BIW for 3 weeks): modest anti-tumor activity
Classification (LU-01-0030 xenograft; [5]): Additive (If the P-value is above 0.05, then the combination is considered to be additive)
Synergy score (LU-01-0030 xenograft; [5]): −74.5
Tumor Volume Day 20 (LU-01-0030 xenograft; 6.25 mg/kg Compound 1 IV D 0, 3, 8, 11, 15, 18 + 4 Gy Radiation Beam D 0): 83.8 mm^3
Tumor Volume Day 20 (LU-01-0030 xenograft; 6.25 mg/kg Compound 1 IV D 0, 3, 8, 11, 15, 18, single agent): 648.9 mm^3
Classification (LU-01-0030 xenograft; [6]): Additive (If the P-value is above 0.05, then the combination is considered to be additive)
Synergy score (LU-01-0030 xenograft; [6]): −10.3
Tumor Volume Day 20 (LU-01-0030 xenograft; 15 mg/kg Compound 1 IV D 0, 3, 8, 11, 15, 18 + 4 Gy Radiation Beam D 0): 2.04 mm^3
Tumor Volume Day 20 (LU-01-0030 xenograft; 15 mg/kg Compound 1 IV D 0, 3, 8, 11, 15, 18, single agent): 67.8 mm^3
combination effect (LU-01-0030 xenograft; Compound 1 with 4 Gy radiation): additive combination effect
